Reference: publication PMC4946969 (ACS chemical biology, 2016)

Legend:
S. epidermidis AgrC-I [1] = molecular target: T1, S. epidermidis AgrC-I (Staphylococcus epidermidis, UniProt Q5HMY3); type: cell-based; conditions: AgrC-I activation dose response in the presence of 50 nM S. epidermidis AIP-II
S. epidermidis AgrC-I [2] = molecular target: T1, S. epidermidis AgrC-I; type: cell-based; conditions: for IC50: AgrC-I antagonism dose response, peptide alone, Group-I reporter strain, 24 h
S. epidermidis AgrC-III = assay: AgrC-III modulation, Group-III GFP reporter strain AH3409; type: cell-based, Staphylococcus epidermidis; conditions: initial single-concentration screen, 10 μM (Figures S-2, 2A)
S. epidermidis AgrC-II = assay: AgrC-II modulation, Group-II GFP reporter strain AH3567; type: cell-based, Staphylococcus epidermidis

D-S-V-(C-DA-S-Y-F) [AIP-I D-A5]
EC50 (S. epidermidis AgrC-I [1]): Inactive ^c | IC50 (S. epidermidis AgrC-I [2]): Inactive ^c

D-S-V-(DC-A-S-Y-F) [AIP-I D-C4]
EC50 (S. epidermidis AgrC-I [1]): Inactive ^c | IC50 (S. epidermidis AgrC-I [2]): Inactive ^c

D-S-V-(C-A-S-A-F) [AIP-I Y7A]
EC50 (S. epidermidis AgrC-I [1]): Inactive ^c | AgrC-III (Group-III) inhibition, single concentration (S. epidermidis AgrC-III): ~ 50% | IC50 (S. epidermidis AgrC-I [2]): Inactive ^c | AgrC-II (Group-II) inhibition, single concentration (S. epidermidis AgrC-II; initial single-concentration screen, 10 μM (Figures S-1, 2A)): ~ 50%

I-N-(C-D-F-L-L) [S. aureus AIP-III, reference compound]
EC50 (S. epidermidis AgrC-I [1]): Inactive ^c | IC50 (S. epidermidis AgrC-I [2]): Inactive ^c

Y-S-T-(C-D-F-I-M) [S. aureus AIP-I, reference compound]
EC50 (S. epidermidis AgrC-I [1]): Inactive ^c | IC50 (S. epidermidis AgrC-I [2]): Inactive ^c

I-N-(C-A-F-L-L) [S. aureus AIP-III D4A, reference compound]
EC50 (S. epidermidis AgrC-I [1]): Inactive ^c | IC50 (S. epidermidis AgrC-I [2]): Inactive ^c | Activity toward Group-II (AgrC-II) at lower concentration (S. epidermidis AgrC-II; 100 nM (lower-concentration screen 1 μM or 100 nM; Figure 2A)): inhibiting exclusively Group-II

D-S-V-(C-A-S-DY-F) [AIP-I D-Y7]
EC50 (S. epidermidis AgrC-I [1]): Inactive ^c | IC50 (S. epidermidis AgrC-I [2]): Inactive ^c

D-S-V-(C-S-S-Y-F) [A5S-2]
AgrC-I dose response behaviour (S. epidermidis AgrC-I [2]; two isolated AIP-I A5S products): very weak inhibition at low concentrations yet activation at higher concentrations

D-S-V-(C-A-S-Y-A) [AIP-I F8A]
EC50 (S. epidermidis AgrC-I [1]): Inactive ^c | IC50 (S. epidermidis AgrC-I [2]): Inactive ^c
